Where no end group is shown, it is not given here.

The record followed here is patent US7700108B2, “Tumor antigen protein and use thereof” (Dainippon Sumitomo Pharma Co., Ltd., priority 2002, dated 2010).

This experiment relates to TcOS2000cl-303 (CTL) with 293-EBNA-B55 cells (HLA-B* 5502). The experiment is described as follows: LDH release assay: reactivity of CTL TcOS2000cl-303 to peptide-pulsed 293-EBNA-B55 cells. The format is cell-based, human. Particulars: 293-EBNA-B55 cells pulsed for 1 hour with peptide, co-cultured with TcOS2000cl-303; FIG. 5. The method, then: The first screening involved the following procedures. A pool of about 100 cDNA clones ([…]) was introduced into 293-EBNA-B55 cells having been plated into a 96-well microplate at 8×10^4 cells/well by lipofection method (Lipofectamine 2000, Invitrogen). Pools of respective cDNA clones used for introduction were stored separately. Twenty-four-hour later, TcOS2000cl-303 cells (8×10^4) were added and cultivation continued for another 24 hours, when the cultured supernatant was recovered. The reactivity of CTL was evaluated by determining LDH released in the supernatant by cytotoxic effects using LDH Cytotoxicity Detection Kit (TAKARA BIO). […] As a result, the reactivity was detected in 20 wells. […] As a result, the reactivity was detected in 4 wells.
Antigen peptide regions that bind to HLA-B* 5502 was identified from various peptides synthesized on the basis of the amino acid sequence (SEQ ID NO: 2) of tumor antigen protein PBF using as an index the reactivity of TcOS2000cl-303. 293-EBNA-B55A cells (8×10^4) were pulsed for 1 hour with a peptide having an amino acid sequence (Cys Thr Ala Cys Arg Trp Lys Ala Cys Gln Arg, SEQ ID NO: 46) corresponding to the amino acid sequence at position […] of SEQ ID NO: 2, co-cultured with TcOS2000cl-303 cells (4×10^4) and the reactivity was assessed by LDH release assay in the same manner as that described in Example 2. […]

As for “CTACRWKACQR (cysteine pairing not given here) [SEQ ID NO: 46]”, the “reactivity of TcOS2000cl-303 (LDH release)” value was “reacted to peptide-pulsed 293-EBNA-B55 cells”.
